Reference: patent US20080096770A1, “Evaluation of the Toxicity of Pharmaceutical Agents” (priority 2004, published 2008)
Read-outs that look alike come from different tables or passages of the source.

What was measured:
Type in all cases: cell-based
[1] = test system: TK6 human lymphoblastoid cells; conditions: for Cell Density (±S.D.): 24 h treatment at the optimized cytotoxic concentration (Table 1), aim 40-60% viability decrease; for EC50: 24 h dilution series, determined by cell density and the Alamar Blue assay, read-out: approximated EC50 (cytotoxic concentration for 50% cell death; equicytotoxic concentration)
Procedure: (§1) The human lymphoblastoid cell line TK6 (ATCC, Manassas, Va.) was cultured in RPMI 1640 medium (with Glutamax and 10% FHS) at a cell density of 0.2×10^5 to 10×10^5 cells/ml. Cells were routinely subcultured starting from frozen aliquots after […]. For experiments, passage numbers between 3 to 15 were used.
(§2) Cytotoxic concentrations were determined either by measuring cell density on a Sysmex Cell Counter (Sysmex America, Inc., Mundelein, Ill.) or by metabolic cell activity using the Alamar Blue (Serotec Inc., Raleigh, N.C.) cytotoxicity assay. Alamar Blue indicator dye quantitatively measures proliferation in human and other cells. Alamar Blue is a sensitive fluorimetric and calorimetric reagent sensitive to the redox state of the growth medium. Cell density by Sysmex was measured after the 24 h treatment. Cytotoxicity by Alamar Blue was measured 3 hours prior to end of treatment, i.e., at 21 hours. 200 III of cell suspension were mixed with 20 μl of Alamar Blue reagent in a 96-well plate and measured once/hour using a fluorescence plate reader with 544 nm excitation and 612 nm emission filters. Cell suspension samples from the cytotoxicity dilution series were analyzed for cytometry endpoints by Laser Scanning Cytometry.
(§3) TK6 human lymphoblastoid cells were exposed to following treatments (24 hours, 0.15×10^6 cells/ml):
Dose-response determination to provide the doses given in column 4 of Table 1 was carried out with an initial cell density of 0.15×10^6 cells/ml (see Example 1).
(§4) The six model compounds identified in Table 1 were applied in a dilution series to TK6 cells. The resulting dilution series for each of the six compounds provided individually optimized cytotoxic concentrations for 50% cell death (EC50) as determined by cell density and the Alamar Blue assay. It is possible that cell density and the Alamar Blue assay may not give identical cytotoxicity profiles. Thus, concentrations of the compounds were optimized with the objective to have both cytotoxicity parameters within the range of 40-60% viability decrease. In addition, for representative dilution series several cytometry endpoints were analyzed (BrdU incorporation, KI-67 staining (Histogenex, Edegem, Belgium), propidium iodide staining), although these parameters were not used for concentration selection.

[2] = test system: TK6 human lymphoblastoid cells; assay: Alamar Blue cytotoxicity assay (metabolic cell activity); conditions: measured at 21 hours, at the optimized cytotoxic concentration (Table 1), aim 40-60% viability decrease
Procedure: as §1, §2, §3, §4

[3] = test system: TK6 human lymphoblastoid cells; assay: Microarray gene expression profiling with PLS-DA / KNN discrimination of cytotoxic versus genotoxic compounds (Examples 1-7); conditions: 24 h
Procedure: Total RNA was isolated after 24 hours of treatment with the agents or control using Qiagen's (Hilden, Germany) RNeasy Mini Kits. Samples were made up of 10 ml TK6 cell suspensions with an approximate cell density of 0.3×10^6 cells/ml. Column-purified RNA was eluted with 40 μl water and quality-checked by UV spectrometry and Agilent's “lab-on-a-chip” technology (RNA nano chip, Bioanalyzer 2100, Agilent Technologies, Santa Clara, Calif.). RNA extraction and purification is described by the manufacturer of the GeneChip system.
Purified total human TK6 RNA was analyzed using the human specific Human Genome U133, 2.0 array (Affymetrix). […] Sequences used in the design of the array were selected from GenBank®, dbEST, and RefSeq.
The resulting primary raw data, the image files (.dat files), were processed using the Microarray Analysis Suite 5 (MAS5) software (Affymetrix). Tab-delimited files were obtained containing data regarding signal intensity (Signal) and categorical expression level measurement (Absolute Call).
The raw data obtained from the GeneChip by MAS5 were imported to GeneSpring 7.2 for analysis. Data were normalized per chip and per gene to the respective median. Genes were annotated according to LocusLink nomenclature (http://www.ncbi.nlm.nih.gov/LocusLink/).
Filtering of the data was performed according to following criteria for each gene:
Fold-change refers to the ratio of genotoxic versus cytotoxic. Since these studies seek robust predictor genes the limit ratios (1.4 and 0.7) were selected in order to excluded genes that show consistent but only small differences. […]
PLS-DA was applied iteratively to the gene expression data with cyto- and genotcoxicity as class variables. […] The final model was validated by response permutation; i.e. the class membership of each sample was randomly attributed, evaluated by the model and contrasted to the solution of the model with the original class membership. […]

[4] = test system: TK6 human lymphoblastoid cells; conditions: dilution series up to or around the EC50 values (FIG. 1)
Procedure: FIG. 1. Graphical representation of the percentage of cells in G2 phase as a function of dilution of the indicated genotoxic and nongenotoxic compounds (points 1-9), with control samples at points 10-12. An original color image has been converted to grayscale by computer.
as §2
The six model compounds identified in Table 1 were applied in a dilution series to TK6 cells. […]

[5] = TK6 cells, equicytotoxic concentrations, cytotoxic samples above or at 0, genotoxic samples below 0

Row | Compound | Cell Density (±S.D.) [1] | Alamar Blue (±S.D.) [2] | scores of first component t[1] of PLS-DA with all 215 genes (FIG. 4) ([3]; human) | shifts in cell cycle parameters / G2 phase block [4] | scores of first component t[1] of PLS-DA with all 215 genes (FIG. 4) [3, 5] | EC50 [1] | EC50 ([1]; listed as tPt)
1 | COS(C)(=O)=O [Methyl methanesulfonate] | 44 ± 2% | 43 ± 8% | below t[1]=0 |  |  |  | 
2 | CO[C@@]12[C@H](COC(N)=O)C3=C(C(=O)C(C)=C(N)C3=O)N1C[C@@H]1N[C@@H]12 [Mitomycin C] | 53 ± 3% | 48 ± 1% |  |  |  |  | 
3 | [Cl-].[Na+] [NaCl] | 30 ± 4% | 65 ± 5% |  | no significant shifts in cell cycle parameters | above or at t[1]=0 |  | 
4 | CO[C@H]1/C=C/O[C@@]2(C)Oc3c(C)c(O)c4c(O)c(c(/C=N/N5CCN(C)CC5)c(O)c4c3C2=O)NC(=O)/C(C)=C\C=C\[C@H](C)[C@H](O)[C@@H](C)[C@@H](O)[C@@H](C)[C@H](OC(C)=O)[C@@H]1C [Rifampicin] | 52 ± 9% | 61 ± 8% |  | no significant shifts in cell cycle parameters | above or at t[1]=0 |  | 
5 | N.N.[Cl][Pt][Cl] [cis-Platinum, cis-diammineplatinum(II) dichloride] | 53 ± 4% | 46 ± 5% |  |  |  | 1.3 µM | 
6 | N.N.[Cl][Pt][Cl] [trans-Platinum, trans-diammineplatinum(II) dichloride] | 58 ± 7% | 36 ± 13% |  |  |  |  | 33 µM
